In patent US11155557B2, “Pyrazolopyrimidine compounds and methods of use thereof” (Genentech, Inc., priority 2016, dated 2021):
Read-outs that look alike come from different tables or passages of the source.

What was measured:
[1] = molecular target: isolated recombinant JAK2 kinase domain (Homo sapiens (Human), UniProt O60674); test: JAK2 enzyme assay (Caliper LabChip, Ki)
[2] = test system: JAK1-dependent STAT6 phosphorylation in BEAS-2B human bronchial epithelial cells; test: JAK1 pathway assay: IL-13 stimulated STAT6 phosphorylation in BEAS-2B cells; type: cell-based; settings: Homo sapiens, BEAS-2B, BEAS-2B cells, IL-13 stimulation; read-out: IL-13 p-STAT6 BEAS-2B IC50
Method in brief: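 BEAS-2B bronchial epithelial cells plated one day before, run in complete growth medium. Phospho-STAT6 in lysates measured by MesoScale Discovery; EC50 reported.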

[3] = molecular target: isolated recombinant JAK1 kinase domain (Homo sapiens (Human), UniProt P23458); test: JAK1 enzyme assay (Caliper LabChip, Ki); type: biochemical
Chain of isolated recombinant JAK1 kinase domain (P23458 875-1153): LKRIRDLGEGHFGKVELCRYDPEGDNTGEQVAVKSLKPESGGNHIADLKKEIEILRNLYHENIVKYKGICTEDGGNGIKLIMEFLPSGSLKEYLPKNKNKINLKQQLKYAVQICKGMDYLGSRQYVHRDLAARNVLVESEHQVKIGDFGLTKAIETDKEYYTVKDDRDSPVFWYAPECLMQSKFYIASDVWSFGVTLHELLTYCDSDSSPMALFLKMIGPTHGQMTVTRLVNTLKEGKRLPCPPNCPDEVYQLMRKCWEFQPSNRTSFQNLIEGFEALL
Experimental: The activity of the isolated recombinant JAK1 and JAK2 kinase domain was measured by monitoring phosphorylation of a peptide derived from JAK3 ([…] fluorescently labeled on the N-terminus with 5-carboxyfluorescein) using the Caliper LabChip R technology (Caliper Life Sciences, Hopkinton, Mass.).

Chain of isolated recombinant JAK2 kinase domain (O60674 849-1124): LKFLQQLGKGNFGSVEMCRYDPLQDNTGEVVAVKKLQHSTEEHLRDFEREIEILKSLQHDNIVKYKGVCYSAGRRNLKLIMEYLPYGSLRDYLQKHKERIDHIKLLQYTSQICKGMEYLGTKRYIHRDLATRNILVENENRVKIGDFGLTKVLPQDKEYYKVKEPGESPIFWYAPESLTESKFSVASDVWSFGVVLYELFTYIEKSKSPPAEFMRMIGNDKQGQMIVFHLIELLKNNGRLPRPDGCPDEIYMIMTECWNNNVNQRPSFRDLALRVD

Row | Compound | Ki ([1]; read-out: JAK2 Ki) | Ki [3] | Ki [1] | IC50 [2]
1 | C[C@@H]1CNc2cc(OC(F)F)c(-c3n[nH]cc3NC(=O)c3cnn4cccnc34)cc2O1 [Example 118, N-[3-[(2R)-6-(difluoromethoxy)-2-methyl-3,4-dihydro-2H-1,4-benzoxazin-7-yl]-1H-pyrazol-4-yl]pyrazolo[1,5-a]pyrimidine-3-carboxamide] | 0.23 nM | 0.68 nM |  | 37 nM
2 | CNC(=O)Cn1cc(NC(=O)c2cnn3cccnc23)c(-c2cc3c(cc2OC(F)F)SCCO3)n1 [Example 119, N-[3-[6-(difluoromethoxy)-2,3-dihydro-1,4-benzoxathiin-7-yl]-1-[2-(methylamino)-2-oxo-ethyl]pyrazol-4-yl]pyrazolo[1,5-a]pyrimidine-3-carboxamide] | 1.93 nM | 1.01 nM |  | 40 nM
3 | CN(C)C(=O)Cn1cc(NC(=O)c2cnn3cccnc23)c(-c2cc3c(cc2OC(F)F)SCCO3)n1 [Example 120, N-[3-[6-(difluoromethoxy)-2,3-dihydro-1,4-benzoxathiin-7-yl]-1-[2-(dimethylamino)-2-oxo-ethyl]pyrazol-4-yl]pyrazolo[1,5-a]pyrimidine-3-carboxamide] | 2.54 nM | 0.63 nM |  | 46 nM
4 | CC[C@@H](O)Cn1cc(NC(=O)c2cnn3cccnc23)c(-c2cc3c(cc2OC(F)F)NCCO3)n1 [Example 121, N-[3-[6-(difluoromethoxy)-3,4-dihydro-2H-1,4-benzoxazin-7-yl]-1-[(2R)-2-hydroxybutyl]pyrazol-4-yl]pyrazolo[1,5-a]pyrimidine-3-carboxamide] |  | 0.41 nM | 0.45 nM | 38 nM
5 | CC[C@H](O)Cn1cc(NC(=O)c2cnn3cccnc23)c(-c2cc3c(cc2OC(F)F)NCCO3)n1 [Example 122, N-[3-[6-(difluoromethoxy)-3,4-dihydro-2H-1,4-benzoxazin-7-yl]-1-[(2S)-2-hydroxybutyl]pyrazol-4-yl]pyrazolo[1,5-a]pyrimidine-3-carboxamide] |  | 0.28 nM | 0.25 nM | 32 nM
6 | O=C(Nc1cn(Cc2ncco2)nc1-c1cc2c(cc1OC(F)F)NCCO2)c1cnn2cccnc12 [Example 123, N-[3-[6-(difluoromethoxy)-3,4-dihydro-2H-1,4-benzoxazin-7-yl]-1-(oxazol-2-ylmethyl)pyrazol-4-yl]pyrazolo[1,5-a]pyrimidine-3-carboxamide] | 0.28 nM | 0.36 nM |  | 24 nM
7 | O=C(Nc1cn(Cc2ncco2)nc1-c1cc2c(cc1OC(F)F)NCCS2)c1cnn2cccnc12 [Example 124, N-[3-[6-(difluoromethoxy)-3,4-dihydro-2H-1,4-benzothiazin-7-yl]-1-(oxazol-2-ylmethyl)pyrazol-4-yl]pyrazolo[1,5-a]pyrimidine-3-carboxamide] | 0.15 nM | 0.25 nM |  | 20 nM
8 | Cn1nnnc1Cn1cc(NC(=O)c2cnn3cccnc23)c(-c2cc3c(cc2OC(F)F)NCCS3)n1 [Example 127, N-[3-[6-(difluoromethoxy)-3,4-dihydro-2H-1,4-benzothiazin-7-yl]-1-[(1-methyltetrazol-5-yl)methyl]pyrazol-4-yl]pyrazolo[1,5-a]pyrimidine-3-carboxamide] | 0.06 nM | 0.12 nM |  | 14 nM
9 | Cn1nnc(Cn2cc(NC(=O)c3cnn4cccnc34)c(-c3cc4c(cc3OC(F)F)NCCS4)n2)n1 [Example 128, N-[3-[6-(difluoromethoxy)-3,4-dihydro-2H-1,4-benzothiazin-7-yl]-1-[(2-methyltetrazol-5-yl)methyl]pyrazol-4-yl]pyrazolo[1,5-a]pyrimidine-3-carboxamide] | 0.09 nM | 0.14 nM |  | 7 nM
10 | CN(C)C(=O)Cn1cc(NC(=O)c2cnn3cccnc23)c(-c2cc3sncc3cc2OC(F)F)n1 [Example 129, N-[3-[5-(difluoromethoxy)-1,2-benzothiazol-6-yl]-1-[2-(dimethylamino)-2-oxo-ethyl]pyrazol-4-yl]pyrazolo[1,5-a]pyrimidine-3-carboxamide] | 0.47 nM | 0.2 nM |  | 11 nM
11 | CCN(C)C(=O)Cn1cc(NC(=O)c2cnn3cccnc23)c(-c2cc3c(cc2OC(F)F)NCCO3)n1 [Example 130, N-[3-[6-(difluoromethoxy)-3,4-dihydro-2H-1,4-benzoxazin-7-yl]-1-[2-[ethyl(methyl)amino]-2-oxo-ethyl]pyrazol-4-yl]pyrazolo[1,5-a]pyrimidine-3-carboxamide] | 0.47 nM | 0.31 nM |  | 59 nM
12 | Cn1cc(Cn2cc(NC(=O)c3cnn4cccnc34)c(-c3cc4c(cc3OC(F)F)NCCS4)n2)nn1 [Example 131, N-[3-[6-(difluoromethoxy)-3,4-dihydro-2H-1,4-benzothiazin-7-yl]-1-[(1-methyltriazol-4-yl)methyl]pyrazol-4-yl]pyrazolo[1,5-a]pyrimidine-3-carboxamide] | 0.08 nM | 0.12 nM |  | 30 nM

Continued, in another order:

Row | Ki ([1]; read-out: JAK2 Ki) | Ki [3] | Ki [1] | Compound | IC50 [2]
13 | 0.4 nM | 0.36 nM |  | O=C(Nc1cn(CC(=O)N2CCC(F)(F)C2)nc1-c1cc2c(cc1OC(F)F)NCCO2)c1cnn2cccnc12 [Example 132, N-[3-[6-(difluoromethoxy)-3,4-dihydro-2H-1,4-benzoxazin-7-yl]-1-[2-(3,3-difluoropyrrolidin-1-yl)-2-oxo-ethyl]pyrazol-4-yl]pyrazolo[1,5-a]pyrimidine-3-carboxamide] | 31 nM
14 | 0.21 nM | 0.26 nM |  | Cn1nncc1Cn1cc(NC(=O)c2cnn3cccnc23)c(-c2cc3c(cc2OC(F)F)NCCO3)n1 [Example 133, N-[3-[6-(difluoromethoxy)-3,4-dihydro-2H-1,4-benzoxazin-7-yl]-1-[(3-methyltriazol-4-yl)methyl]pyrazol-4-yl]pyrazolo[1,5-a]pyrimidine-3-carboxamide] | 17 nM
15 | 0.47 nM | 0.4 nM |  | O=C(Nc1cn(CC2(O)CCOCC2)nc1-c1cc2c(cc1OC(F)F)NCCO2)c1cnn2cccnc12 [Example 134, N-[3-[6-(difluoromethoxy)-3,4-dihydro-2H-1,4-benzoxazin-7-yl]-1-[(4-hydroxytetrahydropyran-4-yl)methyl]pyrazol-4-yl]pyrazolo[1,5-a]pyrimidine-3-carboxamide] | 23 nM
16 | 0.14 nM | 0.19 nM |  | Cn1nnnc1Cn1cc(NC(=O)c2cnn3cccnc23)c(-c2cc3c(cc2OC(F)F)NCCO3)n1 [Example 135, N-[3-[6-(difluoromethoxy)-3,4-dihydro-2H-1,4-benzoxazin-7-yl]-1-[(1-methyltetrazol-5-yl)methyl]pyrazol-4-yl]pyrazolo[1,5-a]pyrimidine-3-carboxamide] | 26 nM
17 | 0.17 nM | 0.23 nM |  | Cn1nnc(Cn2cc(NC(=O)c3cnn4cccnc34)c(-c3cc4c(cc3OC(F)F)NCCO4)n2)n1 [Example 136, N-[3-[6-(difluoromethoxy)-3,4-dihydro-2H-1,4-benzoxazin-7-yl]-1-[(2-methyltetrazol-5-yl)methyl]pyrazol-4-yl]pyrazolo[1,5-a]pyrimidine-3-carboxamide] | 21 nM
18 | 0.08 nM | 0.09 nM |  | Cn1cc(NC(=O)c2cnn3cccnc23)c(-c2cc3c(cc2OC(F)F)NC(=O)CO3)n1 [Example 137, N-[3-[6-(difluoromethoxy)-3-oxo-4H-1,4-benzoxazin-7-yl]-1-methyl-pyrazol-4-yl]pyrazolo[1,5-a]pyrimidine-3-carboxamide] | 8 nM
